Marks after values point to notes of the source that are not given here.
What was measured:
normal C57BL/6 mice [1] = assay: glucose tolerance in normal C57BL/6 mice (Example 7); type: in vivo; conditions: 3 nmol/kg s.c. single dose, 72 h after dose
Description: Experimental methods: Normal C57BL/6 mice were randomly divided into 6 groups (Vehicle group, Dulaglutide group, HEC-G123 group, HEC-G128 group, HEC-G131 group, HEC-G132 group) according to blood glucose and body weight, with 8 mice in each group. For the groups of Dulaglutide, HEC-G123, HEC-G128, HEC-G131 and HEC-G132, the corresponding drug was injected subcutaneously into the mice at a dose of 3 nmol/kg, and for the control group, the corresponding vehicle was injected subcutaneously.
After 60 h of single administration, the mice were fasted for 12 h and drank water freely. Blood was collected from the tail vein to measure the basal blood glucose value of each group, then 2 g/kg of glucose solution was injected intraperitoneally, and blood glucose was measured at 15, 30, 60, and 0 min after glucose administration. According to the blood glucose values measured at different time points, the blood glucose concentration-time curve was plotted, and the AUC0˜90min of each dose group was calculated, and the experimental results are shown in Table 6 and FIGS. 1-2.

normal C57BL/6 mice [2] = assay: glucose tolerance in normal C57BL/6 mice (Example 8); type: in vivo; conditions: 3 nmol/kg s.c. single dose, 72 h after dose
Description: Experimental methods: Normal C57BL/6 mice were randomly divided into 6 groups (Vehicle group, Dulaglutide group, HEC-G113 group, HEC-G122 group, HEC-G126 group, HEC-G127 group) according to blood glucose and body weight, with 8 mice in each group. For the groups of Dulaglutide (Dulaglutide purchased from Eli Lilly, lot number was D256504), HEC-G113, HEC-G122, HEC-G126 and HEC-G127, the corresponding drug was injected subcutaneously into the mice at a dose of 3 nmol/kg, and for the control group, the corresponding vehicle was injected subcutaneously.
After 60 h of single administration, the mice were fasted for 12 h and drank water freely. Blood was collected from the tail vein to measure the basal blood glucose value of each group, then 2 g/kg of glucose solution was injected intraperitoneally, and blood glucose was measured at 15, 30, 60, 90 and 0 min after glucose administration. According to the blood glucose values measured at different time points, the blood glucose concentration-time curve was plotted, and the AUC0˜90min of each dose group was calculated, and the experimental results are shown in Table 7 and FIGS. 3-4

normal C57BL/6 mice [3] = assay: glucose tolerance in normal C57BL/6 mice (Example 7); type: in vivo; conditions: 3 nmol/kg s.c. single dose, 72 h after dose, 2 g/kg glucose i.p.
db/db mice = assay: in vivo efficacy in db/db mouse model, blood glucose; conditions: 10 nmol/kg s.c.
Description: Methods: 7-8 week old db/db mice were randomly divided into 3 groups (Model group, Semaglutide group, HEC-G20 group) according to blood glucose and body weight, with 9 mice in each group. For the groups of Semaglutide (Semaglutide was purchased from Novo Nordisk, lot number was JP52092) and HEC-G20, the corresponding drug was administered subcutaneously into the mice at a dose of 10 nmol/kg for each group, and for the Model group, the corresponding vehicle was injected subcutaneously. The Semaglutide group was dosed once a day, and the HEC-G20 group was dosed twice a week for a total of 4 weeks, and animal blood glucose was tested before each dose.

DIO mice = assay: in vivo efficacy in DIO model: body weight, food intake, liver, blood biochemistry
Text: Experimental methods: C57/BL6 mice were randomly divided into normal group NFD and model group HFD at the fifth week of age, and the normal group was fed with ordinary maintenance diet, while the model group was fed with high-fat diet D12492. Changes in body weight and food intake in mice were monitored every 3 weeks. After 16 weeks of feeding, the body weight of mice in the model group and the normal group were (47.9±3.4) g and (29.6±1.5) g, respectively, and the difference between the two groups was statistically significant. The normal group was divided into the control group, and the model group mice that were successfully modeled were divided into Vehicle group, Semaglutide group, HEC-G115 group and HEC-G124 group, with 10 mice in each group. For the groups of Semaglutide, HEC-G115 and HEC-G124, the corresponding drug was injected subcutaneously in each group, and PBS was injected subcutaneously in the Vehicle group. […] Weight and food intake were measured before each dose. After 3 weeks of administration, an intraperitoneal glucose tolerance test was performed. After 72 h of the last administration, samples were collected, liver weight was recorded, and liver pathological status and blood biochemical indexes were detected in each group.

[4] = blood glucose concentration-time curve
[5] = long-term administration 10 nmol/kg s.c., 72 h after last administration
[6] = long-term administration 10 nmol/kg s.c., blood biochemistry

Dulaglutide [reference compound]
Blood glucose value 0 min (normal C57BL/6 mice [1]; 2 g/kg glucose i.p., 0 min): 4.4 ± 0.8 mM
Blood glucose value 15 min (normal C57BL/6 mice [1]; 2 g/kg glucose i.p., 15 min): 15.7 ± 2.2 mM
Blood glucose value 30 min (normal C57BL/6 mice [1]; 2 g/kg glucose i.p., 30 min): 12.7 ± 2.4 mM
Blood glucose value 60 min (normal C57BL/6 mice [1]; 2 g/kg glucose i.p., 60 min): 8.1 ± 1.0 mM
AUC0-90 min (normal C57BL/6 mice [1]; [4]): 899.0 ± 105.4 ^a
Blood glucose value 0 min (normal C57BL/6 mice [2]; 2 g/kg glucose i.p., 0 min): 4.3 ± 0.4 mM
Blood glucose value 15 min (normal C57BL/6 mice [2]; 2 g/kg glucose i.p., 15 min): 15.3 ± 3.1 mM
Blood glucose value 30 min (normal C57BL/6 mice [2]; 2 g/kg glucose i.p., 30 min): 15.1 ± 2.7 mM
Blood glucose value 60 min (normal C57BL/6 mice [2]; 2 g/kg glucose i.p., 60 min): 9.1 ± 1.3 mM
Blood glucose value 90 min (normal C57BL/6 mice [2]; 2 g/kg glucose i.p., 90 min): 6.8 ± 0.9 mM
AUC0-90 min (normal C57BL/6 mice [2]; [4]): 976.2 ± 135.6 ^a
Blood glucose value 90 min (normal C57BL/6 mice [3]): 6.8 ± 0.6 mM

Semaglutide [reference compound]
Random blood glucose 1.5 h (db/db mice; 1.5 h): 15.9 ± 3.4 mM
Random blood glucose 5 h (db/db mice; 5 h): 15.4 ± 4.0 mM
Random blood glucose 7 h (db/db mice; 7 h): 16.3 ± 4.2 mM
Random blood glucose D 0 (db/db mice; Semaglutide once a day, HEC-G20 twice a week, D 0): 25.7 ± 3.7 mM
Random blood glucose D 3 (db/db mice; Semaglutide once a day, HEC-G20 twice a week, D 3): 11.6 ± 4.1 mM
Random blood glucose D 7 (db/db mice; Semaglutide once a day, HEC-G20 twice a week, D 7): 14.9 ± 4.2 mM
Random blood glucose D 10 (db/db mice; Semaglutide once a day, HEC-G20 twice a week, D 10): 17.1 ± 4.2 mM
Random blood glucose D 14 (db/db mice; Semaglutide once a day, HEC-G20 twice a week, D 14): 18.1 ± 3.1 mM
Random blood glucose D 17 (db/db mice; Semaglutide once a day, HEC-G20 twice a week, D 17): 18.5 ± 3.0 mM
Random blood glucose D 21 (db/db mice; Semaglutide once a day, HEC-G20 twice a week, D 21): 18.0 ± 3.3 mM
Random blood glucose D 24 (db/db mice; Semaglutide once a day, HEC-G20 twice a week, D 24): 19.9 ± 2.2 ^a mM
Cumulative food intake D 7-10 (DIO mice; 10 nmol/kg s.c. repeated, D 7-10): 15.7 g/pcs
Weight growth rate D 10 (DIO mice; 10 nmol/kg s.c. repeated, D 10): −17.6 ± 5.1%
Cumulative food intake D 11-13 (DIO mice; 10 nmol/kg s.c. repeated, D 11-13): 20.7 g/pcs
Weight growth rate D 13 (DIO mice; 10 nmol/kg s.c. repeated, D 13): −21.3 ± 5.8%
Cumulative food intake D 14-16 (DIO mice; 10 nmol/kg s.c. repeated, D 14-16): 27.9 g/pcs
Weight growth rate D 16 (DIO mice; 10 nmol/kg s.c. repeated, D 16): −22.3 ± 5.3%
Cumulative food intake D 17-19 (DIO mice; 10 nmol/kg s.c. repeated, D 17-19): 35.7 g/pcs
Weight growth rate D 19 (DIO mice; 10 nmol/kg s.c. repeated, D 19): −21.6 ± 5.6%
Cumulative food intake D 20-22 (DIO mice; 10 nmol/kg s.c. repeated, D 20-22): 41.8 g/pcs
Weight growth rate D 22 (DIO mice; 10 nmol/kg s.c. repeated, D 22): −24.2 ± 6.2%
Cumulative food intake D 23-27 (DIO mice; 10 nmol/kg s.c. repeated, D 23-27): 55.0 ^a g/pcs
Weight growth rate D 25 (DIO mice; 10 nmol/kg s.c. repeated, D 25): −23.2 ± 6.0^a %
Cumulative food intake D 0 (DIO mice; 10 nmol/kg s.c., D 0): 0.7 g/pcs
Weight growth rate D 0 (DIO mice; 10 nmol/kg s.c., D 0): 0.0 ± 0.0%
Cumulative food intake D 1 (DIO mice; 10 nmol/kg s.c., D 1): 1.8 g/pcs
Weight growth rate D 1 (DIO mice; 10 nmol/kg s.c., D 1): −5.3 ± 1.0%
Cumulative food intake D 2 (DIO mice; 10 nmol/kg s.c., D 2): 3.2 g/pcs
Weight growth rate D 2 (DIO mice; 10 nmol/kg s.c., D 2): −7.2 ± 1.2%
Cumulative food intake D 3 (DIO mice; 10 nmol/kg s.c., D 3): 5.3 g/pcs
Weight growth rate D 3 (DIO mice; 10 nmol/kg s.c., D 3): −8.2 ± 1.6%
Cumulative food intake D 4 (DIO mice; 10 nmol/kg s.c., D 4): 8.2 g/pcs
Weight growth rate D 4 (DIO mice; 10 nmol/kg s.c., D 4): −7.4 ± 2.8%
Cumulative food intake D 5 (DIO mice; 10 nmol/kg s.c., D 5): 10.2 g/pcs
Weight growth rate D 5 (DIO mice; 10 nmol/kg s.c., D 5): −6.7 ± 3.7%
Cumulative food intake D 6 (DIO mice; 10 nmol/kg s.c., D 6): 12.5 g/pcs
Weight growth rate D 6 (DIO mice; 10 nmol/kg s.c., D 6): −8.2 ± 3.8%
Weight growth rate D 7 (DIO mice; 10 nmol/kg s.c., D 7): −8.1 ± 4.7%
Liver (DIO mice; liver weight, long-term administration 10 nmol/kg s.c., 72 h after last administration): 1.0 ± 0.2 ^a g
Body weight (DIO mice; [5]): 33.0 ± 2.7^a g
Liver index (DIO mice; [5]): 3.0 ± 0.0 ^a %
ALT (DIO mice; [6]): 19.3 ± 4.3 ^a U/L
AST (DIO mice; [6]): 109.4 ± 9.2 ^a U/L
CHOL (DIO mice; [6]): 2.7 ± 0.4 ^a mmol/L
TRIGL (DIO mice; [6]): 0.7 ± 0.1 mmol/L

Source: patent publication US20250223331A1, “GLP-1/GIP DUAL-TARGETED POLYPEPTIDE AND FUSION PROTEIN AND APPLICATIONS THEREOF” (SUNSHINE LAKE PHARMA CO., LTD., priority 2021, published 2025)
